According to patent EP4467141A1, “PYRAZOLO-QUINOLINES AS SELECTIVE INHIBITORS OF GENOTOXIC STRESS-INDUCED IKK/NF- KB PATHWAYS FOR CANCER THERAPY” (Max-Delbrück-Centrum für Molekulare Medizin in der …, priority 2023, dated 2024):

Assays:
Assay in all cases: Kinase panel study
Format in all cases: biochemical
Conditions in all cases: read-out: Percentage of inhibition; for inhibition at 1 µM: 1000nM; for inhibition at 10 µM: 10000nM
AMPK (A2/B1/G2) = molecular target: T1, AMPK (A2/B1/G2) (Homo sapiens, UniProt P54646)
T1 construct: purchased Thermo Fisher Scientific
How it was run: (§1)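 Single-point inhibition data at 10 µM or 1 µM compound are shown. They were generated in ZLyte- or Adapta-format biochemical assays performed externally under standard conditions.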

AURKB (Aurora B) = molecular target: T2, AURKB (Aurora B) (Homo sapiens, UniProt Q96GD4)
T2 construct: purchased Thermo Fisher Scientific
How it was run: as §1

CAMK2A (CaMKII alpha) = molecular target: T3, CAMK2A (CaMKII alpha) (Homo sapiens, UniProt Q9UQM7)
T3 construct: purchased Thermo Fisher Scientific
How it was run: as §1

NTRK2 (TRKB) = molecular target: T4, NTRK2 (TRKB) (Homo sapiens, UniProt Q16620)
T4 construct: purchased Thermo Fisher Scientific
How it was run: as §1

PAK6 = molecular target: T5, PAK6 (Homo sapiens, UniProt Q9NQU5)
T5 construct: purchased Thermo Fisher Scientific
How it was run: as §1

PLK1 = molecular target: T6, PLK1 (Homo sapiens, UniProt P53350)
T6 construct: purchased Thermo Fisher Scientific
How it was run: as §1

PRKCE (PKC epsilon) = molecular target: T7, PRKCE (PKC epsilon) (Homo sapiens, UniProt Q02156)
T7 construct: purchased Thermo Fisher Scientific
T7 sequence (Q02156 1-737): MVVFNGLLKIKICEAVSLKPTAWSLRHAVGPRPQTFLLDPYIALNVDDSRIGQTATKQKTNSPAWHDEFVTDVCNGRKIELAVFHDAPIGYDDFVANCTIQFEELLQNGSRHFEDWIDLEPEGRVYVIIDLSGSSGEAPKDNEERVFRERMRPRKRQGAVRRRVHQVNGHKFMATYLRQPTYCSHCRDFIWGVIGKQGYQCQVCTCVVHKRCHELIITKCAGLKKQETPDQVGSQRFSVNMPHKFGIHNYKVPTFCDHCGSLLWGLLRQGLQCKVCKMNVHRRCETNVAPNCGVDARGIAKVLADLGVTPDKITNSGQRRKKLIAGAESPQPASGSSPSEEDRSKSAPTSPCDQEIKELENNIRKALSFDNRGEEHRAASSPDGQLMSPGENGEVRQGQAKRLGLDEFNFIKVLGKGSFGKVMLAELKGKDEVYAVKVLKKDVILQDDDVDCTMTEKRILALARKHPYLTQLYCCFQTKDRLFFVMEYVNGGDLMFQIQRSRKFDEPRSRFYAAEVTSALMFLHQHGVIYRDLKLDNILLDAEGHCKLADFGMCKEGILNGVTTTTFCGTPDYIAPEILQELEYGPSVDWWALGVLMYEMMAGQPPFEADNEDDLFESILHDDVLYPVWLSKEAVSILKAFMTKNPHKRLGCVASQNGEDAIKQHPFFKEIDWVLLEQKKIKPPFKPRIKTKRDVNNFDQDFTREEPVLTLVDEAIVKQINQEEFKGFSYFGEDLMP
How it was run: as §1

SGKL (SGK3) = molecular target: T8, SGKL (SGK3) (Homo sapiens, UniProt Q96BR1)
T8 construct: purchased Thermo Fisher Scientific
T8 sequence (Q96BR1 1-496): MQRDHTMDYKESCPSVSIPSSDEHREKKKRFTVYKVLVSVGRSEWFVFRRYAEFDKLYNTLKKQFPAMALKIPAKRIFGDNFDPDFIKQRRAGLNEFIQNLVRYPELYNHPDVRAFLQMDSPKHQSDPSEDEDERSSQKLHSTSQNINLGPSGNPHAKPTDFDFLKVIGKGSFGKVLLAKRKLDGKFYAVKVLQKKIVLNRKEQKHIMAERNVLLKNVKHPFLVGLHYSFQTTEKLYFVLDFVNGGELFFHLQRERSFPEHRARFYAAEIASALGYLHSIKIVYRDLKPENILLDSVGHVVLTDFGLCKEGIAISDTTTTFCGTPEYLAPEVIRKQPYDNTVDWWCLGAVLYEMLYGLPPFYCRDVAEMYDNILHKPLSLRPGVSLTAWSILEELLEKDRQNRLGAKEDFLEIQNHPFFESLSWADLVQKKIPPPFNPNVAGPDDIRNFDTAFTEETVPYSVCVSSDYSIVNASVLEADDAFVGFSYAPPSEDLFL
How it was run: as §1

SRPK1 = molecular target: T9, SRPK1 (Homo sapiens, UniProt Q96SB4)
T9 construct: purchased Thermo Fisher Scientific
How it was run: as §1

T4 sequence (Q16620 32-822): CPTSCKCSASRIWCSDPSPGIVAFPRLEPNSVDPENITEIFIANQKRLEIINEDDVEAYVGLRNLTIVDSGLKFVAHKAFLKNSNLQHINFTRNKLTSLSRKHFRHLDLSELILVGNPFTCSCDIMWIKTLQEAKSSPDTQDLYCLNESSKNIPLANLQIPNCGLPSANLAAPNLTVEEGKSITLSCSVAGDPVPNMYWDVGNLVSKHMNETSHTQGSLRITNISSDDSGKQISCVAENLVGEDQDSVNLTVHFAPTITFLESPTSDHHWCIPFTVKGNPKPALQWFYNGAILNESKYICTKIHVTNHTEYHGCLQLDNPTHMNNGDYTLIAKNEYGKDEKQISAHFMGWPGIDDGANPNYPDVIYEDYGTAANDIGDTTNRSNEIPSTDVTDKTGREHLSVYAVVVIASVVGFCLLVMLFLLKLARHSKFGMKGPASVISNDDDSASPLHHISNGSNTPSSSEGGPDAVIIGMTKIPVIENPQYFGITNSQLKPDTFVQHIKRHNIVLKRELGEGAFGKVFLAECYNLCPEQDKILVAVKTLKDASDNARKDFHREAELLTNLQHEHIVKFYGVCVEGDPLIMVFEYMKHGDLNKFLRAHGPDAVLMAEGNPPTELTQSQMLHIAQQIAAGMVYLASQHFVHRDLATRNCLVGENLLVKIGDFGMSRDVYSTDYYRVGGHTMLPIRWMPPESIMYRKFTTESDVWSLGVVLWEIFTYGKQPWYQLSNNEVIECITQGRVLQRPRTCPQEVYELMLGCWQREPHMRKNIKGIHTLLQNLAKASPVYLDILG
T6 sequence (P53350 whole entry): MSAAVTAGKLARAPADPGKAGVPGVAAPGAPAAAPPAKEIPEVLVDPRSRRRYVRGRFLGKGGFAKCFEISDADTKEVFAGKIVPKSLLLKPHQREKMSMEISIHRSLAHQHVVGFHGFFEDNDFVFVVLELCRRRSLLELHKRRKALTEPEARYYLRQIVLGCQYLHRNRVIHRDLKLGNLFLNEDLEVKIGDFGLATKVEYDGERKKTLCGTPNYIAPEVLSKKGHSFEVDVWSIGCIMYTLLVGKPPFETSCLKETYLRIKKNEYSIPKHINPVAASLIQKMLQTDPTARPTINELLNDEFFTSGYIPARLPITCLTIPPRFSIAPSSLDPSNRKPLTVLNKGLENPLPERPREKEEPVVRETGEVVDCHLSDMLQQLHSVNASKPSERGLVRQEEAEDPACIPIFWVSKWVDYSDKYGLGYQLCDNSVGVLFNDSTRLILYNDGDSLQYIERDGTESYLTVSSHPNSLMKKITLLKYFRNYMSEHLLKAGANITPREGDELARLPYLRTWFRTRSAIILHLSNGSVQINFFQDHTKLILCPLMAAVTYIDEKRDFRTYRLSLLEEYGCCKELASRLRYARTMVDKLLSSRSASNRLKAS
T1 sequence (P54646 whole entry): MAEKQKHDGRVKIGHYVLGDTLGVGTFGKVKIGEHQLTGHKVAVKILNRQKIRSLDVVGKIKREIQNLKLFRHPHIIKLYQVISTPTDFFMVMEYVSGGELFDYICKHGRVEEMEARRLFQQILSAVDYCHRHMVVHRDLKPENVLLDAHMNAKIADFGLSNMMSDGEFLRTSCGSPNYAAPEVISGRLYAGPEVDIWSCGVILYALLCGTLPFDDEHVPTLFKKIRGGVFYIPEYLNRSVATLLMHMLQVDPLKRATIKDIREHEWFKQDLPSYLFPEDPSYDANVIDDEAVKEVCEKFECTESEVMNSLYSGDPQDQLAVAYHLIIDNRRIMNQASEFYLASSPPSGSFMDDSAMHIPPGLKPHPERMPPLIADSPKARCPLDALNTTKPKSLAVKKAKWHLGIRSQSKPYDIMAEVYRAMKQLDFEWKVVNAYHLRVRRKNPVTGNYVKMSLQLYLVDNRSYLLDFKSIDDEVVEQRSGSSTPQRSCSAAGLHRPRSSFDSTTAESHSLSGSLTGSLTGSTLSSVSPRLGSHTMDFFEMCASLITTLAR
T1 sequence (Q9Y478 whole entry partner): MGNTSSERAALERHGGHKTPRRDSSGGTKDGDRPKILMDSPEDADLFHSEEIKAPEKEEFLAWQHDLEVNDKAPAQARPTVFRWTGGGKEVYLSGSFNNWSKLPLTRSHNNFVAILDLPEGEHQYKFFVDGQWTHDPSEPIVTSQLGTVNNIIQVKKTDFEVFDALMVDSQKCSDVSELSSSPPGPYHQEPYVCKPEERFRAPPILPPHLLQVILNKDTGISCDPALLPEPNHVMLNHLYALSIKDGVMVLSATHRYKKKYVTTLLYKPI
T1 sequence (Q9UGJ0 whole entry partner): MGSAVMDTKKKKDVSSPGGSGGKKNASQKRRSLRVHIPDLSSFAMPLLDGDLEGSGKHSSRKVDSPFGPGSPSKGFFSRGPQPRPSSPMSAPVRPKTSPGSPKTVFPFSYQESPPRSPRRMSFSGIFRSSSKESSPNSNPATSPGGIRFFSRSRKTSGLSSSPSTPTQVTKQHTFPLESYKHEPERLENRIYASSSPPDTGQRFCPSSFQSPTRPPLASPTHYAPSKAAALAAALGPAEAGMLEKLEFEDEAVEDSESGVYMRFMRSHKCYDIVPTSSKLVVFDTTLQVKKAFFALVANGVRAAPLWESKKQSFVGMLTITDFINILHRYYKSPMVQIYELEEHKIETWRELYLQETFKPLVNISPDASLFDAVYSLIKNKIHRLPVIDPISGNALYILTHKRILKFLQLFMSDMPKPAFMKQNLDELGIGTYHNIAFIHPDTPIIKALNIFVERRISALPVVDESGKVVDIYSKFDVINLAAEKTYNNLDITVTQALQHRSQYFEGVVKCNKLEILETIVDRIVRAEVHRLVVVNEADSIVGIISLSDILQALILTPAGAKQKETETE
T2 sequence (Q96GD4 whole entry): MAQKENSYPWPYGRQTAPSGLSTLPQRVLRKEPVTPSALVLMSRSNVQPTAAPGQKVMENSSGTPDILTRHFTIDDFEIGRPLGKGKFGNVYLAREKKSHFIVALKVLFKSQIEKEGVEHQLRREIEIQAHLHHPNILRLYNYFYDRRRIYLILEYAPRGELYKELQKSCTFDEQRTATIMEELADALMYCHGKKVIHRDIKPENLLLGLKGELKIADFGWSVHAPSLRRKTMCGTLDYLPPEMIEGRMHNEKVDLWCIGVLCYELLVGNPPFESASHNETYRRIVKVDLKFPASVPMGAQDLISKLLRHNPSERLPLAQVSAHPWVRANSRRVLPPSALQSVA
T9 sequence (Q96SB4 whole entry): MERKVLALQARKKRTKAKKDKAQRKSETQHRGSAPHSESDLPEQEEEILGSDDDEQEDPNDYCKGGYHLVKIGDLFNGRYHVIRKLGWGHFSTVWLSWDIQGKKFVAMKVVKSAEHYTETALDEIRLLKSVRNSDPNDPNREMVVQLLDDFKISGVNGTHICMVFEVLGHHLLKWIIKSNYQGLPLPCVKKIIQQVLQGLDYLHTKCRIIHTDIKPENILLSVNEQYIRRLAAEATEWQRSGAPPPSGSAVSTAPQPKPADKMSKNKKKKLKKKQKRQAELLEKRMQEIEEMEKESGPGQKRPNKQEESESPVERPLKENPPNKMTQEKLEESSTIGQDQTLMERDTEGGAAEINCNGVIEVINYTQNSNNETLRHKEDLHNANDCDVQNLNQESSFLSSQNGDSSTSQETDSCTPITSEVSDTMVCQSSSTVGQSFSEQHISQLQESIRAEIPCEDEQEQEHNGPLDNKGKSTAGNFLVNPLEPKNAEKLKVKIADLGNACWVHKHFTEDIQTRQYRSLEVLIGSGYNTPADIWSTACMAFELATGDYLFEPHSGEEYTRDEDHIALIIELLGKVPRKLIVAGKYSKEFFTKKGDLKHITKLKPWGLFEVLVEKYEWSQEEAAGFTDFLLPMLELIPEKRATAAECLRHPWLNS
T5 sequence (Q9NQU5 whole entry): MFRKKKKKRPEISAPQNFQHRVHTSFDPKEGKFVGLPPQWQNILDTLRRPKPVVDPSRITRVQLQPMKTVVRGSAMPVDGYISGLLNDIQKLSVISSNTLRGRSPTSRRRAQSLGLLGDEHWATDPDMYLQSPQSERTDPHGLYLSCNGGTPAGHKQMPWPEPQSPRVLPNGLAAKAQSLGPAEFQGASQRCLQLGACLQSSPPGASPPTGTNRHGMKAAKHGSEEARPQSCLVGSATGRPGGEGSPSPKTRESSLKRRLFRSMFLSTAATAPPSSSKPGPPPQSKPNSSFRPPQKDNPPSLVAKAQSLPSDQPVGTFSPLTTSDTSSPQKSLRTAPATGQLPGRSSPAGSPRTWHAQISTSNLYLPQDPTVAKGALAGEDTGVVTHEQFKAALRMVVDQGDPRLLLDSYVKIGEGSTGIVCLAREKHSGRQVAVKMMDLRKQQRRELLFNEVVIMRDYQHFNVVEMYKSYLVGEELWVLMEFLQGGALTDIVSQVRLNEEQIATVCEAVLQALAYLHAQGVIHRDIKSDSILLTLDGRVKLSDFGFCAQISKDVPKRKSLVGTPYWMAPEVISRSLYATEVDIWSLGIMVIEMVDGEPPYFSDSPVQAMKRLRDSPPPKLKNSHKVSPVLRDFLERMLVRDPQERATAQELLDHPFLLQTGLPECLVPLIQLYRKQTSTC

SMILES	inhibition at 1 µM (AMPK (A2/B1/G2)) [%]	inhibition at 10 µM (AMPK (A2/B1/G2)) [%]	inhibition at 1 µM (AURKB (Aurora B)) [%]	inhibition at 10 µM (AURKB (Aurora B)) [%]	inhibition at 1 µM (CAMK2A (CaMKII alpha)) [%]	inhibition at 10 µM (CAMK2A (CaMKII alpha)) [%]	inhibition at 1 µM (NTRK2 (TRKB)) [%]	inhibition at 10 µM (NTRK2 (TRKB)) [%]	inhibition at 1 µM (PAK6) [%]	inhibition at 10 µM (PAK6) [%]	inhibition at 1 µM (PLK1) [%]	inhibition at 10 µM (PLK1) [%]	inhibition at 1 µM (PRKCE (PKC epsilon)) [%]	inhibition at 10 µM (PRKCE (PKC epsilon)) [%]	inhibition at 1 µM (SGKL (SGK3)) [%]	inhibition at 10 µM (SGKL (SGK3)) [%]	inhibition at 1 µM (SRPK1) [%]	inhibition at 10 µM (SRPK1) [%]
COc1ccc2c(c1OC)c(=O)n1c3ccc(O)cc3c3ccnc2c31 [MW01, 5-Hydroxy-10,11-dimethoxy-9H-benzo[c]indolo[3,2,1-ij][1,5]naphthyridin-9-one]	-12	10	15	19	12	39	35	68	5	-10	5	3	9	8	12	10	12	15
COc1ccc2cc3c(N)nn(C(=O)c4cccc(N(C)C)c4)c3nc2c1 [MW05, (3-Amino-7-methoxypyrazolo[3,4-b]quinolin-1-yl)-[3-(dimethylamino)phenyl]methanone]	-12	-16	8	-6	9	16	13	42	11	3	6	6	6	-12	8	6	8	10
